Measurements from ChEMBL document CHEMBL2010711, “Synthesis and comparative evaluation of 4-oxa- and 4-aza-podophyllotoxins as antiproliferative microtubule destabilizing agents” (Bioorg Med Chem Lett, 2012).
Active and inactive are the calls of the source.

Tests used:
[1] = tested on: SNB-75; test: Cytotoxicity against human SNB75 cells after 48 hrs by trypan blue dye exclusion assay; type: functional; conditions: SNB-75, 48 h
[2] = tested on: COLO 205; test: Cytotoxicity against human COLO205 cells after 48 hrs by trypan blue dye exclusion assay; type: functional; conditions: COLO 205, 48 h
[3] = tested on: 786-0; test: Cytotoxicity against human 786-0 cells after 48 hrs by trypan blue dye exclusion assay; type: functional; conditions: 786-0, 48 h
[4] = tested on: U-251; test: Cytotoxicity against human U251 cells after 48 hrs by trypan blue dye exclusion assay; type: functional; conditions: U-251, 48 h
[5] = tested on: OVCAR-4; test: Cytotoxicity against human OVCAR4 cells after 48 hrs by trypan blue dye exclusion assay; type: functional; conditions: OVCAR-4, 48 h
[6] = tested on: RPMI-8226; test: Cytotoxicity against human RPMI8226 cells after 48 hrs by trypan blue dye exclusion assay; type: functional; conditions: RPMI-8226, 48 h
[7] = tested on: MDA-MB-435; test: Cytotoxicity against human MDA-MB-435 cells after 48 hrs by trypan blue dye exclusion assay; type: functional; conditions: MDA-MB-435, 48 h
[8] = tested on: UO-31; test: Cytotoxicity against human UO31 cells after 48 hrs by trypan blue dye exclusion assay; type: functional; conditions: UO-31, 48 h
[9] = tested on: HOP-92; test: Cytotoxicity against human HOP92 cells after 48 hrs by trypan blue dye exclusion assay; type: functional; conditions: HOP-92, 48 h
[10] = tested on: DU-145; test: Cytotoxicity against human DU145 cells after 48 hrs by trypan blue dye exclusion assay; type: functional; conditions: DU-145, 48 h
[11] = tested on: HL-60(TB); test: Cytotoxicity against human HL-60(TB) cells after 48 hrs by trypan blue dye exclusion assay; type: functional; conditions: HL-60, 48 h
[12] = tested on: CAKI-1; test: Cytotoxicity against human CAKI-1 cells after 48 hrs by trypan blue dye exclusion assay; type: functional; conditions: CAKI-1, 48 h
[13] = tested on: LOX IMVI; test: Cytotoxicity against human LOXIMVI cells after 48 hrs by trypan blue dye exclusion assay; type: functional
[14] = tested on: M14; test: Cytotoxicity against human M14 cells after 48 hrs by trypan blue dye exclusion assay; type: functional; conditions: M14, 48 h
[15] = tested on: NCI-H460; test: Cytotoxicity against human NCI-H460 cells after 48 hrs by trypan blue dye exclusion assay; type: functional; conditions: NCI-H460, 48 h
[16] = tested on: MCF7; test: Cytotoxicity against human MCF7 cells after 48 hrs by trypan blue dye exclusion assay; type: functional; conditions: MCF7, 48 h
[17] = tested on: HCT-116; test: Cytotoxicity against human HCT116 cells after 48 hrs by trypan blue dye exclusion assay; type: functional; conditions: HCT-116, 48 h
[18] = tested on: A498; test: Cytotoxicity against human A498 cells after 48 hrs by trypan blue dye exclusion assay; type: functional; conditions: A498, 48 h
[19] = tested on: NCI-H226; test: Cytotoxicity against human NCI-H226 cells after 48 hrs by trypan blue dye exclusion assay; type: functional; conditions: NCI-H226, 48 h
[20] = tested on: CCRF-CEM; test: Cytotoxicity against human CCRF-CEM cells after 48 hrs by trypan blue dye exclusion assay; type: functional
[21] = tested on: SN12C; test: Cytotoxicity against human SN12C cells after 48 hrs by trypan blue dye exclusion assay; type: functional
[22] = tested on: ACHN; test: Cytotoxicity against human ACHN cells after 48 hrs by trypan blue dye exclusion assay; type: functional
[23] = tested on: HCT-15; test: Cytotoxicity against human HCT15 cells after 48 hrs by trypan blue dye exclusion assay; type: functional; conditions: HCT-15, 48 h
[24] = tested on: HT-29; test: Cytotoxicity against human HT-29 cells after 48 hrs by trypan blue dye exclusion assay; type: functional; conditions: HT-29, 48 h
[25] = Cytotoxicity against human Hs 578T cells after 48 hrs by trypan blue dye exclusion assay; type: functional
[26] = tested on: Paracentrotus lividus; test: Microtubule destabilizing activity in Paracentrotus lividus embryo assessed as embryo spinning at 2 fold less effective threshold concentration after 15 mins to 20 hrs; type: functional, organism-based
[27] = tested on: BT-549; test: Cytotoxicity against human BT549 cells after 48 hrs by trypan blue dye exclusion assay; type: functional; conditions: BT-549, 48 h
[28] = tested on: NCI/ADR-RES; test: Cytotoxicity against human NCI/ADR-RES cells after 48 hrs by trypan blue dye exclusion assay; type: functional
[29] = tested on: TK-10; test: Cytotoxicity against human TK10 cells after 48 hrs by trypan blue dye exclusion assay; type: functional; conditions: TK-10, 48 h
[30] = tested on: OVCAR-8; test: Cytotoxicity against human OVCAR8 cells after 48 hrs by trypan blue dye exclusion assay; type: functional; conditions: OVCAR-8, 48 h
[31] = tested on: SK-MEL-2; test: Cytotoxicity against human SK-MEL-2 cells after 48 hrs by trypan blue dye exclusion assay; type: functional; conditions: SK-MEL-2, 48 h
[32] = tested on: MDA-MB-231; test: Cytotoxicity against human MDA-MB-231 cells after 48 hrs by trypan blue dye exclusion assay; type: functional; conditions: MDA-MB-231, 48 h
[33] = tested on: SNB-19; test: Cytotoxicity against human SNB19 cells after 48 hrs by trypan blue dye exclusion assay; type: functional; conditions: SNB-19, 48 h
[34] = tested on: SF-268; test: Cytotoxicity against human SF268 cells after 48 hrs by trypan blue dye exclusion assay; type: functional; conditions: SF-268, 48 h
[35] = tested on: NCI-H23; test: Cytotoxicity against human NCI-H23 cells after 48 hrs by trypan blue dye exclusion assay; type: functional; conditions: NCI-H23, 48 h
[36] = tested on: OVCAR-3; test: Cytotoxicity against human OVCAR3 cells after 48 hrs by trypan blue dye exclusion assay; type: functional; conditions: OVCAR-3, 48 h
[37] = tested on: HCC 2998; test: Cytotoxicity against human HCC2998 cells after 48 hrs by trypan blue dye exclusion assay; type: functional; conditions: HCC 2998, 48 h
[38] = tested on: IGROV-1; test: Cytotoxicity against human IGROV1 cells after 48 hrs by trypan blue dye exclusion assay; type: functional; conditions: IGROV-1, 48 h
[39] = tested on: PC-3; test: Cytotoxicity against human PC3 cells after 48 hrs by trypan blue dye exclusion assay; type: functional; conditions: PC-3, 48 h
[40] = tested on: NCI-H522; test: Cytotoxicity against human NCI-H522 cells after 48 hrs by trypan blue dye exclusion assay; type: functional; conditions: NCI-H522, 48 h
[41] = tested on: SF-295; test: Cytotoxicity against human SF295 cells after 48 hrs by trypan blue dye exclusion assay; type: functional; conditions: SF-295, 48 h
[42] = tested on: SK-MEL-5; test: Cytotoxicity against human SK-MEL-5 cells after 48 hrs by trypan blue dye exclusion assay; type: functional; conditions: SK-MEL-5, 48 h
[43] = tested on: RXF 393; test: Cytotoxicity against human RXF393 cells after 48 hrs by trypan blue dye exclusion assay; type: functional; conditions: RXF 393, 48 h
[44] = tested on: SW-620; test: Cytotoxicity against human SW620 cells after 48 hrs by trypan blue dye exclusion assay; type: functional; conditions: SW-620, 48 h
[45] = tested on: SK-OV-3; test: Cytotoxicity against human SKOV3 cells after 48 hrs by trypan blue dye exclusion assay; type: functional; conditions: SK-OV-3, 48 h
[46] = tested on: NCI-H322M; test: Cytotoxicity against human NCI-H322M cells after 48 hrs by trypan blue dye exclusion assay; type: functional
[47] = tested on: EKVX; test: Cytotoxicity against human EKVX cells after 48 hrs by trypan blue dye exclusion assay; type: functional
[48] = tested on: OVCAR-5; test: Cytotoxicity against human OVCAR5 cells after 48 hrs by trypan blue dye exclusion assay; type: functional; conditions: OVCAR-5, 48 h
[49] = tested on: KM12; test: Cytotoxicity against human KM12 cells after 48 hrs by trypan blue dye exclusion assay; type: functional; conditions: KM12, 48 h
[50] = tested on: MDA-MB-468; test: Cytotoxicity against human MDA-MB-468 cells after 48 hrs by trypan blue dye exclusion assay; type: functional; conditions: MDA-MB-468, 48 h
[51] = tested on: SR; test: Cytotoxicity against human SR cells after 48 hrs by trypan blue dye exclusion assay; type: functional
[52] = tested on: SF-539; test: Cytotoxicity against human SF539 cells after 48 hrs by trypan blue dye exclusion assay; type: functional; conditions: SF-539, 48 h
[53] = tested on: MOLT-4; test: Cytotoxicity against human MOLT4 cells after 48 hrs by trypan blue dye exclusion assay; type: functional; conditions: MOLT-4, 48 h
[54] = tested on: SK-MEL-28; test: Cytotoxicity against human SK-MEL-28 cells after 48 hrs by trypan blue dye exclusion assay; type: functional; conditions: SK-MEL-28, 48 h
[55] = tested on: Paracentrotus lividus; test: Antimitotic activity against Paracentrotus lividus embryo assessed as cleavage alteration at 2 fold less effective threshold concentration after 2.5 to 6 hrs; type: functional, organism-based
[56] = tested on: UACC-257; test: Cytotoxicity against human UACC257 cells after 48 hrs by trypan blue dye exclusion assay; type: functional; conditions: UACC-257, 48 h
[57] = tested on: Paracentrotus lividus; test: Antimitotic activity against Paracentrotus lividus embryo assessed as cleavage arrest at 2 fold less effective threshold concentration after 2.5 to 6 hrs; type: functional, organism-based
[58] = tested on: UACC-62; test: Cytotoxicity against human UACC62 cells after 48 hrs by trypan blue dye exclusion assay; type: functional; conditions: UACC-62, 48 h
[59] = tested on: A549; test: Cytotoxicity against human A549 cells after 48 hrs by trypan blue dye exclusion assay; type: functional; conditions: A549, 48 h

Structure (SMILES): COc1cc(OC)cc(C2C3=C(COC3=O)Nc3cc(OC)ccc32)c1 (centres undefined)
- GI50 [1]: < 0.01 µM
- GI50 [2]: < 0.01 µM
- GI50 [3]: 0.0203 µM
- GI50 [4]: < 0.01 µM
- GI50 [5]: < 0.01 µM
- GI50 [6]: < 0.01 µM
- GI50 [7]: < 0.01 µM
- GI50 [8]: 0.0488 µM
- GI50 [9]: < 0.01 µM
- GI50 [10]: < 0.01 µM
- GI50 [11]: < 0.01 µM
- GI50 [12]: < 0.01 µM
- GI50 [13]: < 0.01 µM
- GI50 [14]: < 0.01 µM
- GI50 [15]: < 0.01 µM
- GI50 [16]: < 0.01 µM
- GI50 [17]: < 0.01 µM
- GI50 [18]: < 0.01 µM
- GI50 [19]: 14.4 µM
- GI50 [20]: < 0.01 µM
- GI50 [21]: 0.0161 µM
- GI50 [22]: < 0.01 µM
- GI50 [23]: < 0.01 µM
- GI50 [24]: < 0.01 µM
- GI50 [25]: < 0.01 µM
- Activity [26]: inactive
- GI50 [27]: 0.0138 µM
- GI50 [28]: < 0.01 µM
- GI50 [29]: 39.7 µM
- GI50 [30]: 0.0204 µM
- GI50 [31]: 8.16 µM
- GI50 [32]: 0.0165 µM
- GI50 [33]: 0.0278 µM
- GI50 [34]: < 0.01 µM
- GI50 [35]: < 0.01 µM
- GI50 [36]: < 0.01 µM
- GI50 [37]: < 0.01 µM
- GI50 [38]: < 0.01 µM
- GI50 [39]: < 0.01 µM
- GI50 [40]: < 0.01 µM
- GI50 [41]: < 0.01 µM
- GI50 [42]: < 0.01 µM
- GI50 [43]: < 0.01 µM
- GI50 [44]: < 0.01 µM
- GI50 [45]: < 0.01 µM
- GI50 [46]: < 0.01 µM
- GI50 [47]: < 0.01 µM
- GI50 [48]: 0.0404 µM
- GI50 [49]: < 0.01 µM
- GI50 [50]: < 0.01 µM
- GI50 [51]: < 0.01 µM
- GI50 [52]: < 0.01 µM
- GI50 [53]: < 0.01 µM
- GI50 [54]: < 0.01 µM
- Activity [55]: inactive
- GI50 [56]: > 100 µM
- Activity [57]: inactive
- GI50 [58]: < 0.01 µM
- GI50 [59]: < 0.01 µM
